{"source": "patent US6822064B1", "about": "“Polymerizable macromers and preparation thereof” (Council of Scientific and Industrial Research, priority 2003, dated 2004)", "biological_target": "lysozyme (Gallus gallus, UniProt P00698)", "sequence (P00698 19-147)": "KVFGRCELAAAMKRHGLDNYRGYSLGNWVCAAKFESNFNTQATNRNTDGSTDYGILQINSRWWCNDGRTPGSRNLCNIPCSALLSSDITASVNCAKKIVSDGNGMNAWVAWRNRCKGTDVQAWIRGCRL", "assay": "Estimation of relative inhibition of lysozyme (Micrococcus lysodeikticus substrate, absorbance at 450 nm)", "assay_type": "biochemical", "conditions": "for ligand concentration at maximum inhibition: ligand concentration at which the maximum inhibition is achieved; for Imax: maximum relative inhibition of lysozyme", "excerpt": "This example describes the estimation of inhibition of lysozyme by monomers, oligomers and macromer. I50 denotes the concentration of the ligand containing NAG at which 50% of the highest achievable inhibition is achieved. Imax denotes the ligand concentration at which the maximum inhibition is achieved.\nMicrococcus lysodeikticus is a substrate for the enzyme lysozyme. Relative binding of macromers was estimated by using a procedure reported by Neuberger and Wilson (1967).\n1.5% w/v stock solutions of macromer was prepared in 0.0066 M phosphate buffer pH 6.2 containing 0.0154 m sodium chloride and 0.008 M sodium azide. One milliliter of stock solution containing different ligand concentration was mixed with 1.6 ml of 78 μg/ml of Micrococcus lysodeikticus in a 3-ml capacity glass cuvette. The mixture was incubated for 5 minutes at 20° C. To this mixture 0.1 ml of lysozyme (27 μg/ml) was added and mixed thoroughly. The relative absorbance at 450 nm (Δ450) was recorded for 30 seconds. A blank reading without the ligand was noted and the change in the absorbance per second was calculated. Then relative inhibition was calculated.", "data": [{"smiles": "CC(=O)N[C@H]1C(O)O[C@H](CO)[C@@H](O)[C@@H]1O", "note": "(some centres unmarked) [NAG, N-Acetyl Glucosamine, reference compound]", "values": [{"measurement": "ligand concentration at maximum inhibition", "value": 92.50, "unit": "mM"}, {"measurement": "Imax", "value": 55.29}]}, {"smiles": "C=CC(=O)OC[C@H]1OC(O)[C@H](NC(C)=O)[C@@H](O)[C@@H]1O", "note": "(some centres unmarked) [Ac. NAG, Acryloyl N-Acetyl Glucosamine]", "values": [{"measurement": "IC50", "setting": "ligand concentration at which 50% of the highest achievable inhibition is achieved, pH 6.2, 20° C., read-out: I50", "value": 14.8, "unit": "mM"}, {"measurement": "ligand concentration at maximum inhibition", "value": 14.81, "unit": "mM"}, {"measurement": "Imax", "value": 50.00}]}]}
